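In this assay, cells in 96-well plates receive the compound at five concentrations for 48 hours. Endpoints are linearly interpolated between the surrounding concentrations. At the GI50, growth is halved.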 Active and inactive are the calls of the source. No stated cut-off is given here; in the data, active = GI50 up to about 1.1 µM and inactive = higher.
Tests used:
Experiment in all cases: NCI-60 cell line screen, 48 h
A498 = system: A498
ACHN = system: ACHN
COLO 205 = system: COLO 205
HCC 2998 = system: HCC 2998
HT-29 = system: HT-29
IGROV-1 = system: IGROV-1
MOLT-4 = system: MOLT-4
NCI-H522 = system: NCI-H522
OVCAR-3 = system: OVCAR-3
OVCAR-8 = system: OVCAR-8
SF-295 = system: SF-295
SK-MEL-28 = system: SK-MEL-28
SK-MEL-5 = system: SK-MEL-5
TK-10 = system: TK-10
UACC-257 = system: UACC-257
UACC-62 = system: UACC-62
OVCAR-5 = system: OVCAR-5

Measured: GI50

N#Cc1cc(NC(=O)c2ccccc2)c(=O)n2c1[nH]c1ccccc12
inactive: A498 22.7 µM | ACHN 29.9 µM | COLO 205 31.6 µM | HCC 2998 28.8 µM | HT-29 48.5 µM | IGROV-1 24.5 µM | MOLT-4 29.6 µM | NCI-H522 11 µM | OVCAR-3 28.2 µM | OVCAR-8 38.3 µM | SF-295 71 µM | SK-MEL-28 21.6 µM | SK-MEL-5 12.7 µM | TK-10 22.2 µM | UACC-257 33 µM | UACC-62 17.4 µM

CC1(C)CC(=O)C=C(NC(=O)c2ccccc2)C1
inactive: A498 > 100 µM | COLO 205 > 100 µM | HCC 2998 > 100 µM | HT-29 > 100 µM | IGROV-1 > 100 µM | MOLT-4 > 100 µM | NCI-H522 > 100 µM | OVCAR-3 > 100 µM | OVCAR-8 > 100 µM | SF-295 > 100 µM | SK-MEL-28 > 100 µM | SK-MEL-5 > 100 µM | TK-10 > 100 µM | UACC-257 > 100 µM | UACC-62 > 100 µM

O=C1OC(c2ccccc2)=N/C1=C/NC(CO)C(=O)O (configuration not stated)
inactive: A498 > 100 µM | ACHN > 100 µM | COLO 205 > 100 µM | HCC 2998 > 100 µM | HT-29 > 100 µM | IGROV-1 67.1 µM | NCI-H522 > 100 µM | OVCAR-3 > 100 µM | OVCAR-5 > 100 µM | OVCAR-8 > 100 µM | SF-295 > 100 µM | SK-MEL-28 > 100 µM | SK-MEL-5 > 100 µM | TK-10 > 100 µM | UACC-257 > 100 µM | UACC-62 > 100 µM

Clc1ccc2c(Cl)ncnc2c1
inactive: A498 > 100 µM | ACHN > 100 µM | COLO 205 > 100 µM | HCC 2998 > 100 µM | HT-29 > 100 µM | IGROV-1 > 100 µM | MOLT-4 > 100 µM | NCI-H522 > 100 µM | OVCAR-3 > 100 µM | OVCAR-5 > 100 µM | OVCAR-8 > 100 µM | SF-295 > 100 µM | SK-MEL-28 > 100 µM | SK-MEL-5 > 100 µM | TK-10 > 100 µM | UACC-257 > 100 µM | UACC-62 > 100 µM

CC1=Nc2ccccc2C1C(Cc1ccccc1N)c1c(C)[nH]c2ccccc12 (configuration not stated)
inactive: A498 16 µM | ACHN 15.2 µM | COLO 205 16.6 µM | HCC 2998 15.4 µM | HT-29 17.8 µM | IGROV-1 17.4 µM | MOLT-4 20.9 µM | NCI-H522 14 µM | OVCAR-3 15.1 µM | OVCAR-5 17.6 µM | OVCAR-8 16.6 µM | SF-295 12.6 µM | SK-MEL-28 18.8 µM | SK-MEL-5 14.6 µM | TK-10 16.9 µM | UACC-257 17.8 µM | UACC-62 13.5 µM

COc1ccc2nccc(C3=CCC4CCN(C(=O)c5ccccc5)C3C4)c2c1 (configuration not stated)
inactive: A498 > 100 µM | COLO 205 > 100 µM | HCC 2998 > 100 µM | HT-29 > 100 µM | IGROV-1 > 100 µM | MOLT-4 44.9 µM | NCI-H522 > 100 µM | OVCAR-3 86.9 µM | OVCAR-8 > 100 µM | SF-295 > 100 µM | SK-MEL-28 > 100 µM | SK-MEL-5 93.3 µM | TK-10 > 100 µM | UACC-257 > 100 µM | UACC-62 > 100 µM

Cc1ccc(-n2c3nc(=O)n(C)c(=O)c-3nc3ccccc32)cc1
inactive: A498 26.7 µM | ACHN 3.26 µM | COLO 205 4.47 µM | HCC 2998 4.61 µM | HT-29 3.54 µM | IGROV-1 31.6 µM | MOLT-4 14.9 µM | NCI-H522 12.6 µM | OVCAR-3 3.24 µM | OVCAR-5 23.8 µM | OVCAR-8 9.2 µM | SF-295 11.2 µM | SK-MEL-5 13.4 µM | TK-10 27.2 µM | UACC-257 12.8 µM | UACC-62 2.3 µM

Reference: ChEMBL document CHEMBL1201862, “PubChem BioAssay data set” (2004)
